# Measurements as given in patent US8802597B2, “Herbicidal pyrimidines” (E I du Pont de Nemours and Company, priority 2003, dated 2014).
# Where two headings read alike, the source gives them in different places.
# Key:
# Format in all cases: in vivo
# [1] = system: barnyardgrass (Echinochloa crus-galli); test: Test B flooded paddy test; conditions: Flood, scale 0 to 100
# Procedure, shortened: (§1)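 Plants were grown to the 2-leaf stage before treatment, then kept in a greenhouse for 13 to 15 days. Injury was rated visually against untreated controls on a 0 to 100 scale, where 0 is no effect and 100 is complete control.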
# rice (Oryza sativa) = test: Test B flooded paddy test; conditions: Flood, scale 0 to 100
# Procedure, shortened: as §1
# [2] = system: umbrella sedge (Cyperus difformis); test: Test B flooded paddy test; conditions: Flood, scale 0 to 100
# Procedure, shortened: as §1
# [3] = system: duck salad (Heteranthera limosa); test: Test B flooded paddy test; conditions: Heteranthera limosa, Flood, scale 0 to 100, read-out: Plant response rating, Ducksalad
# Procedure, shortened: as §1
# wild oat (Avena fatua) = test: Test B postemergence; conditions: Avena fatua, post-emergence, scale 0 to 100 (0 no effect, 100 complete control), read-out: Oat, Wild plant response rating
# Procedure, shortened: (§2)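 Formulation: non-phytotoxic solvent blend with surfactant. Timing: preemergence on seeds, postemergence at 1- to 4-leaf (2–18 cm). Assessment: visual, 0–100 against controls, after 13–15 days' greenhouse growth.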
# [4] = system: blackgrass (Alopecurus myosuroides); test: Test B postemergence; conditions: Alopecurus myosuroides, post-emergence, scale 0 to 100 (0 no effect, 100 complete control), read-out: Blackgrass plant response rating
# Procedure, shortened: as §2
# [5] = system: morningglory (Ipomoea coccinea); test: Test B pre/postemergence; conditions: Ipomoea; for pest or weed control at 62 g/ha: 62 g ai/ha; for pest or weed control at 125 g/ha: 125 g ai/ha
# Procedure, shortened: as §2
# [6] = system: barnyardgrass (Echinochloa crus-galli); test: Test B pre/postemergence; conditions: Echinochloa crus-galli, scale 0 to 100 (0 no effect, 100 complete control); for pest or weed control at 62 g/ha: 62 g ai/ha; for pest or weed control at 125 g/ha: 125 g ai/ha
# Procedure, shortened: as §2
# [7] = system: crabgrass (Digitaria sanguinalis); test: Test B pre/postemergence; conditions: Digitaria sanguinalis; for pest or weed control at 62 g/ha: 62 g ai/ha; for pest or weed control at 125 g/ha: 125 g ai/ha
# Procedure, shortened: as §2
# [8] = system: Surinam grass (Brachiaria decumbens); test: Test B pre/postemergence; conditions: Urochloa decumbens; for pest or weed control at 125 g/ha: 125 g ai/ha; for pest or weed control at 62 g/ha: 62 g ai/ha
# Procedure, shortened: as §2
# [9] = system: cocklebur (Xanthium strumarium); test: Test B pre/postemergence; conditions: for pest or weed control at 125 g/ha: 125 g ai/ha
# Procedure, shortened: as §2
# [10] = system: lambsquarters (Chenopodium album); test: Test B pre/postemergence; conditions: Chenopodium album; for pest or weed control at 62 g/ha: 62 g ai/ha; for pest or weed control at 125 g/ha: 125 g ai/ha
# Procedure, shortened: as §2
# [11] = system: wheat (Triticum aestivum); test: Test B pre/postemergence; conditions: Triticum aestivum, scale 0 to 100 (0 no effect, 100 complete control); for plant injury at 62 g/ha: 62 g ai/ha; for plant injury at 125 g/ha: 125 g ai/ha
# Procedure, shortened: as §2
# [12] = system: velvetleaf (Abutilon theophrasti); test: Test B pre/postemergence; conditions: Abutilon theophrasti; for pest or weed control at 62 g/ha: 62 g ai/ha; for pest or weed control at 125 g/ha: 125 g ai/ha
# Procedure, shortened: as §2
# [13] = system: pigweed (Amaranthus retroflexus); test: Test B pre/postemergence; conditions: Amaranthus retroflexus; for pest or weed control at 62 g/ha: 62 g ai/ha; for pest or weed control at 125 g/ha: 125 g ai/ha
# Procedure, shortened: as §2
# corn (Zea mays) = test: Test B pre/postemergence; conditions: Zea mays
# Procedure, shortened: as §2
# [14] = system: giant foxtail (Setaria faberii); test: Test B pre/postemergence; conditions: Setaria faberi; for pest or weed control at 125 g/ha: 125 g ai/ha; for pest or weed control at 62 g/ha: 62 g ai/ha
# Procedure, shortened: as §2
# [15] = post-emergence, Postemergence, scale 0 to 100 (0 no effect, 100 complete control), read-out: Morningglory plant response rating
# [16] = post-emergence, Postemergence, read-out: Barnyardgrass plant response rating
# [17] = pre-emergence, Preemergence, read-out: Plant response rating, Barnyardgrass
# [18] = post-emergence, Postemergence, scale 0 to 100 (0 no effect, 100 complete control), read-out: Crabgrass plant response rating
# [19] = post-emergence, Postemergence, scale 0 to 100 (0 no effect, 100 complete control), read-out: Surinam Grass plant response rating
# [20] = post-emergence, Postemergence, scale 0 to 100 (0 no effect, 100 complete control), read-out: Lambsquarters plant response rating
# [21] = post-emergence, Postemergence, read-out: Wheat plant response rating
# [22] = pre-emergence, Preemergence, read-out: Plant response rating, Wheat
# [23] = post-emergence, Postemergence, scale 0 to 100 (0 no effect, 100 complete control), read-out: Velvetleaf plant response rating
# [24] = post-emergence, Postemergence, scale 0 to 100 (0 no effect, 100 complete control), read-out: Pigweed plant response rating
# [25] = post-emergence, Postemergence, scale 0 to 100 (0 no effect, 100 complete control), read-out: Foxtail, Giant plant response rating
smiles,measurement,setting,value
"Nc1nc(C2CC2)nc(C(=O)[O-])c1Cl.[Na+] [Compound 77, 6-amino-5-chloro-2-cyclopropyl-4-pyrimidinecarboxylic acid monosodium salt]",pest or weed control at 500 g/ha,"[1]; Echinochloa crus-galli, 500 g ai/ha, read-out: Plant response rating, Barnyardgrass",60%
same,"Plant response rating, Barnyardgrass",[1]; 125 g ai/ha,0
same,"Plant response rating, Rice",rice (Oryza sativa); 125 g ai/ha,0
same,plant injury at 500 g/ha,"rice (Oryza sativa); Oryza sativa, 500 g ai/ha, read-out: Plant response rating, Rice",50%
same,"Plant response rating, Sedge, Umbrella",[2]; 125 g ai/ha,0
same,"Plant response rating, Sedge, Umbrella",[2]; 500 g ai/ha,40
same,pest or weed control at 125 g/ha,[3]; 125 g ai/ha,40%
same,pest or weed control at 500 g/ha,[3]; 500 g ai/ha,80%
same,pest or weed control at 62 g/ha,wild oat (Avena fatua); 62 g ai/ha,50%
same,pest or weed control at 125 g/ha,wild oat (Avena fatua); 125 g ai/ha,60%
same,pest or weed control at 62 g/ha,[4]; 62 g ai/ha,50%
same,pest or weed control at 125 g/ha,[4]; 125 g ai/ha,60%
same,pest or weed control at 62 g/ha,[5]; [15],100%
same,pest or weed control at 125 g/ha,[5]; [15],100%
same,pest or weed control at 62 g/ha,"[5]; pre-emergence, Preemergence, scale 0 to 100, 0 no effect, 100 complete control, read-out: Plant response rating, Morningglory",100%
same,pest or weed control at 125 g/ha,"[5]; pre-emergence, Preemergence, scale 0 to 100 (0 no effect, 100 complete control), read-out: Plant response rating, Morningglory",100%
same,pest or weed control at 62 g/ha,[6]; [16],60%
same,pest or weed control at 125 g/ha,[6]; [16],90%
same,pest or weed control at 62 g/ha,[6]; [17],70%
same,pest or weed control at 125 g/ha,[6]; [17],90%
same,pest or weed control at 62 g/ha,[7]; [18],70%
same,pest or weed control at 125 g/ha,[7]; [18],80%
same,pest or weed control at 62 g/ha,"[7]; pre-emergence, Preemergence, scale 0 to 100, 0 no effect, 100 complete control, read-out: Plant response rating, Crabgrass",80%
same,pest or weed control at 125 g/ha,"[7]; pre-emergence, Preemergence, scale 0 to 100 (0 no effect, 100 complete control), read-out: Plant response rating, Crabgrass",90%
same,pest or weed control at 125 g/ha,[8]; [19],80%
same,pest or weed control at 62 g/ha,[8]; [19],70%
same,pest or weed control at 125 g/ha,"[8]; pre-emergence, Preemergence, scale 0 to 100 (0 no effect, 100 complete control), read-out: Plant response rating, Surinam Grass",90%
same,pest or weed control at 62 g/ha,"[8]; pre-emergence, Preemergence, scale 0 to 100, 0 no effect, 100 complete control, read-out: Plant response rating, Surinam Grass",60%
same,Cocklebur plant response rating,"[9]; Postemergence, 62 g ai/ha, scale 0 to 100 (0 no effect, 100 complete control)",70
same,pest or weed control at 125 g/ha,"[9]; Xanthium strumarium, post-emergence, Postemergence, scale 0 to 100 (0 no effect, 100 complete control), read-out: Cocklebur plant response rating",100%
same,pest or weed control at 62 g/ha,"[9]; Xanthium strumarium, pre-emergence, Preemergence, 62 g ai/ha, scale 0 to 100, 0 no effect, 100 complete control, read-out: Plant response rating, Cocklebur",80%
same,pest or weed control at 125 g/ha,"[9]; Xanthium strumarium, pre-emergence, Preemergence, scale 0 to 100 (0 no effect, 100 complete control), read-out: Plant response rating, Cocklebur",100%
same,pest or weed control at 62 g/ha,[10]; [20],100%
same,pest or weed control at 125 g/ha,[10]; [20],100%
same,pest or weed control at 62 g/ha,"[10]; pre-emergence, Preemergence, scale 0 to 100, 0 no effect, 100 complete control, read-out: Plant response rating, Lambsquarters",100%
same,pest or weed control at 125 g/ha,"[10]; pre-emergence, Preemergence, scale 0 to 100 (0 no effect, 100 complete control), read-out: Plant response rating, Lambsquarters",100%
same,plant injury at 62 g/ha,[11]; [21],50%
same,plant injury at 125 g/ha,[11]; [21],60%
same,plant injury at 62 g/ha,[11]; [22],70%
same,plant injury at 125 g/ha,[11]; [22],70%
same,pest or weed control at 62 g/ha,[12]; [23],80%
same,pest or weed control at 125 g/ha,[12]; [23],90%
same,pest or weed control at 62 g/ha,"[12]; pre-emergence, Preemergence, scale 0 to 100, 0 no effect, 100 complete control, read-out: Plant response rating, Velvetleaf",80%
same,pest or weed control at 125 g/ha,"[12]; pre-emergence, Preemergence, scale 0 to 100 (0 no effect, 100 complete control), read-out: Plant response rating, Velvetleaf",100%
same,pest or weed control at 62 g/ha,[13]; [24],90%
same,pest or weed control at 125 g/ha,[13]; [24],100%
same,pest or weed control at 62 g/ha,"[13]; pre-emergence, Preemergence, scale 0 to 100, 0 no effect, 100 complete control, read-out: Plant response rating, Pigweed",100%
same,pest or weed control at 125 g/ha,"[13]; pre-emergence, Preemergence, scale 0 to 100 (0 no effect, 100 complete control), read-out: Plant response rating, Pigweed",100%
same,plant injury at 62 g/ha,"corn (Zea mays); post-emergence, Postemergence, 62 g ai/ha, scale 0 to 100 (0 no effect, 100 complete control), read-out: Corn plant response rating",30%
same,plant injury at 125 g/ha,"corn (Zea mays); post-emergence, Postemergence, 125 g ai/ha, scale 0 to 100 (0 no effect, 100 complete control), read-out: Corn plant response rating",80%
same,"Corn plant response rating (crop injury, 0 = no effect, 100 = complete kill) at 62 g/ha","corn (Zea mays); pre-emergence, Preemergence, 62 g ai/ha, scale 0 to 100, 0 no effect, 100 complete control",70%
same,"Corn plant response rating (crop injury, 0 = no effect, 100 = complete kill) at 125 g/ha","corn (Zea mays); pre-emergence, Preemergence, 125 g ai/ha, scale 0 to 100 (0 no effect, 100 complete control)",80%
same,pest or weed control at 125 g/ha,[14]; [25],80%
same,pest or weed control at 62 g/ha,[14]; [25],70%
same,pest or weed control at 125 g/ha,"[14]; pre-emergence, Preemergence, scale 0 to 100 (0 no effect, 100 complete control), read-out: Plant response rating, Foxtail, Giant",90%
same,pest or weed control at 62 g/ha,"[14]; pre-emergence, Preemergence, scale 0 to 100, 0 no effect, 100 complete control, read-out: Plant response rating, Foxtail, Giant",70%
